Experimental data from US5525599A, “7-substituted-amino-3-substituted-3-cephem-4-carboxylic acids” (Eli Lilly and Company, priority 1993, dated 1996).
≈ marks a conversion by molar mass, not a printed value. Where two headings read alike, the source gives them in different places.

Legend:
[1] = MICs against 4 strains of methicillin-resistant staphylococci; assay type: cell-based, Staphylococcus aureus and Staphylococcus epidermidis; conditions: Staphylococcus aureus, read-out: minimal inhibitory concentrations (MICs)
Method: (§1) Cephalosporins 9a-o were assayed against a broad array of Gram-positive and Gram-negative bacteria in Mueller-Hinton agar by the 2-fold serial dilution method, (Kirst, H. A.; J. Antibiot. 1982, 35, 1675).
(§2) Test compounds were diluted to an appropriate range of concentrations in 0.1M phosphate buffer (pH 7), incorporated into Mueller-Hinton agar (difco) supplemented with 1% Bacto-Supplement C (Difco) at 50° C. and allowed to solidify in petri dishes. Fresh overnight cultures of test bacteria were diluted to approximately 1×10^4 cells/mL aand applied in […] to the surface of the agar plates. The inoculated plates were incubated overnight at 35° C. in ambient air. MIC endpoints were recorded as the lowest antibiotic concentrations that inhibited the development of visible bacterial growth on the plates.

[2] = tested on: 33 strains of methicillin-resistant staphylococci; test: Geometric mean MICs against 33 strains of methicillin-resistant staphylococci; assay type: cell-based; conditions: for MIC: 33 strains, read-out: Geometric mean MIC; for MICs relative to clinically achievable concentrations for cephalosporins / change of MICs in the presence of NaCl: in words, 4% NaCl
Method: as §2
It is known that resistance to methicillin in staphylococci is often of the heterogeneous type and therefore not easily detected. […] (Goldstein, F. W.; Acar, J. J. Antimicrob. Chemother. […], 27, 549). […] J.; Drake T. A.; Rusnak, M. G.; Sande, M. A. J. Infect. Dis. 1984, 149, 894).

other Gram(-) bacteria = test: In vitro activity (MIC), agar dilution method; assay type: cell-based
Enter. faecalis (2041) = test: In vitro activity (MIC), agar dilution method; assay type: cell-based; conditions: Enterococcus faecalis; Enter. faecalis (2041), agar dilution; read-out: MIC
Method: as §1, §2

E. coli (EC14) = test: In vitro activity (MIC), agar dilution method; assay type: cell-based; conditions: Escherichia coli
Method: as §1, §2

Staph. aureus (X400) = test: In vitro activity (MIC), agar dilution method; assay type: cell-based; conditions: Staphylococcus aureus; Staph. aureus (X400), methicillin-resistant strain, agar dilution; read-out: MIC
Method: as §1, §2

K. pneumonia (X26) = test: In vitro activity (MIC), agar dilution method; assay type: cell-based; conditions: Klebsiella pneumoniae; K. pneumonia (X26), agar dilution; read-out: MIC
Method: as §1, §2

K. pneumonia (KAE) = test: In vitro activity (MIC), agar dilution method; assay type: cell-based; conditions: Klebsiella pneumoniae
Method: as §1, §2

Staph. epiderm. (222) = test: In vitro activity (MIC), agar dilution method; assay type: cell-based; conditions: Staphylococcus epidermidis; Staph. epiderm. (222), methicillin-resistant strain, agar dilution; read-out: MIC
Method: as §1, §2

E. coli (TEM) = test: In vitro activity (MIC), agar dilution method; assay type: cell-based; conditions: Escherichia coli
Method: as §1, §2

Enter. faecium (X66) = test: In vitro activity (MIC), agar dilution method; assay type: cell-based; conditions: Enterococcus faecium; Enter. faecium (X66), agar dilution; read-out: MIC
Method: as §1, §2

Staph. aureus (V41) = test: In vitro activity (MIC), agar dilution method; assay type: cell-based; conditions: Staphylococcus aureus; Staph. aureus (V41), agar dilution; read-out: MIC
Method: as §1, §2

Staph. epiderm. (270) = test: In vitro activity (MIC), agar dilution method; assay type: cell-based; conditions: Staphylococcus epidermidis, methicillin-resistant strain
Method: as §1, §2

E. coli (N10) = test: In vitro activity (MIC), agar dilution method; assay type: cell-based; conditions: Escherichia coli
Method: as §1, §2

H. influenzae (C.L.) = test: In vitro activity (MIC), agar dilution method; assay type: cell-based; conditions: Haemophilus influenzae; H. influenzae (C.L.), agar dilution; read-out: MIC
Method: as §1, §2

Staph. aureus (X1.1) = test: In vitro activity (MIC), agar dilution method; assay type: cell-based; conditions: Staphylococcus aureus; Staph. aureus (X1.1), agar dilution; read-out: MIC
Method: as §1, §2

K. pneumonia (X68) = test: In vitro activity (MIC), agar dilution method; assay type: cell-based; conditions: Klebsiella pneumoniae
Method: as §1, §2

Strept. pyogenes (C203) = test: In vitro activity (MIC), agar dilution method; assay type: cell-based; conditions: Streptococcus pyogenes; Strept. pyogenes (C203), agar dilution; read-out: MIC
Method: as §1, §2

H. influenzae (76) = test: In vitro activity (MIC), agar dilution method; assay type: cell-based; conditions: Haemophilus influenzae; H. influenzae (76), agar dilution; read-out: MIC
Method: as §1, §2

Staph. aureus (S13E) = test: In vitro activity (MIC), agar dilution method; assay type: cell-based; conditions: Staphylococcus aureus
Method: as §1, §2

CC(=O)OCC1=C(C(=O)O)N2C(=O)[C@@H](NC(=O)Cc3csc(-c4ccccc4O)n3)[C@H]2SC1 [9a, [6R-[6A,7B(R*)]]-3-[(Acetyloxy)methyl]-7-[[[2-(2-hydroxyphenyl)-4-thiazolyl]acetyl]amino]-8-oxo-5-thia-1-azabicyclo[4.2.0]oct-2-ene-2-carboxylic Acid]
MIC [1]: ≤ 16 µg/mL
MIC ([2]; MHA + 4% NaCl, 35° C.): 2.4 µg/mL
MIC ([2]; MHA): 1.7 µg/mL (≈ 3.47 µM)
MICs relative to clinically achievable concentrations for cephalosporins [2]: remained in the range usually considered to be clinically achievable concentrations for cephalosporins
change of MICs in the presence of NaCl [2]: only slightly elevated in the presence of NaCl
MIC (other Gram(-) bacteria): > 64 µg/mL
MIC (Enter. faecalis (2041)): 2 µg/mL (≈ 4.09 µM)
MIC (E. coli (EC14)): 128 µg/mL (≈ 261 µM)
MIC (Staph. aureus (X400)): 2 µg/mL (≈ 4.09 µM)
MIC (K. pneumonia (X26)): 2 µg/mL (≈ 4.09 µM)
MIC (K. pneumonia (KAE)): 128 µg/mL (≈ 261 µM)
MIC (Staph. epiderm. (222)): 4 µg/mL (≈ 8.17 µM)
MIC (E. coli (TEM)): 128 µg/mL (≈ 261 µM)
MIC (Enter. faecium (X66)): 16 µg/mL (≈ 32.7 µM)
MIC (Staph. aureus (V41)): 0.25 µg/mL (≈ 0.511 µM)
MIC (Staph. epiderm. (270)): 0.125 µg/mL (≈ 0.255 µM)
MIC (E. coli (N10)): 128 µg/mL (≈ 261 µM)
MIC (H. influenzae (C.L.)): 8 µg/mL (≈ 16.3 µM)
MIC (Staph. aureus (X1.1)): 0.03 µg/mL (≈ 0.0613 µM)
MIC (K. pneumonia (X68)): 128 µg/mL (≈ 261 µM)
MIC (Strept. pyogenes (C203)): 1 µg/mL (≈ 2.04 µM)
MIC (H. influenzae (76)): 0.5 µg/mL (≈ 1.02 µM)

CC(=O)OCC1=C(C(=O)O)N2C(=O)[C@@H](NC(=O)Cc3csc(-c4cccc(O)c4)n3)[C@H]2SC1 [9m, [6R-[6A,7B(R*)]]-3-[(Acetyloxy)methyl]-7-[[[2-(3-hydroxyphenyl)-4-thiazolyl]acetyl]amino]-8-oxo-5-thia-1-azabicyclo[4.2.0]oct-2-ene-2-carboxylic Acid]
MIC [1]: ≤ 16 µg/mL
MIC (other Gram(-) bacteria): > 64 µg/mL
MIC (Enter. faecalis (2041)): 16 µg/mL (≈ 32.7 µM)
MIC (E. coli (EC14)): 128 µg/mL (≈ 261 µM)
MIC (Staph. aureus (X400)): 16 µg/mL (≈ 32.7 µM)
MIC (K. pneumonia (X26)): 4 µg/mL (≈ 8.17 µM)
MIC (K. pneumonia (KAE)): 128 µg/mL (≈ 261 µM)
MIC (Staph. aureus (S13E)): 8 µg/mL (≈ 16.3 µM)
MIC (Staph. epiderm. (222)): 0.25 µg/mL (≈ 0.511 µM)
MIC (E. coli (TEM)): 128 µg/mL (≈ 261 µM)
MIC (Enter. faecium (X66)): 32 µg/mL (≈ 65.4 µM)
MIC (Staph. aureus (V41)): 1 µg/mL (≈ 2.04 µM)
MIC (Staph. epiderm. (270)): 1 µg/mL (≈ 2.04 µM)
MIC (E. coli (N10)): 128 µg/mL (≈ 261 µM)
MIC (Staph. aureus (X1.1)): 0.25 µg/mL (≈ 0.511 µM)
MIC (K. pneumonia (X68)): 128 µg/mL (≈ 261 µM)

CC(=O)OCC1=C(C(=O)O)N2C(=O)[C@@H](NC(=O)Cc3csc(-c4ncccc4O)n3)[C@H]2SC1 [9i, [6R-[6A,7B(R*)]]-3-[(Acetyloxy)methyl]-7-[[[2-(3-hydroxy-2-pyridinyl)-4-thiazolyl]acetyl]amino]-8-oxo-5-thia-1-azabicyclo[4.2.0]oct-2-ene-2-carboxylicAcid]
MIC [1]: ≤ 16 µg/mL
MIC ([2]; MHA + 4% NaCl, 35° C.): 8 µg/mL
MIC ([2]; MHA): 4.8 µg/mL (≈ 9.79 µM)
MICs relative to clinically achievable concentrations for cephalosporins [2]: remained in the range usually considered to be clinically achievable concentrations for cephalosporins
change of MICs in the presence of NaCl [2]: only slightly elevated in the presence of NaCl
MIC (other Gram(-) bacteria): > 64 µg/mL
MIC (Enter. faecalis (2041)): 8 µg/mL (≈ 16.3 µM)
MIC (E. coli (EC14)): 128 µg/mL (≈ 261 µM)
MIC (Staph. aureus (X400)): 4 µg/mL (≈ 8.15 µM)
MIC (K. pneumonia (X26)): 1 µg/mL (≈ 2.04 µM)
MIC (K. pneumonia (KAE)): 128 µg/mL (≈ 261 µM)
MIC (Staph. aureus (S13E)): 2 µg/mL (≈ 4.08 µM)
MIC (Staph. epiderm. (222)): 0.125 µg/mL (≈ 0.255 µM)
MIC (E. coli (TEM)): 128 µg/mL (≈ 261 µM)
MIC (Enter. faecium (X66)): 8 µg/mL (≈ 16.3 µM)
MIC (Staph. aureus (V41)): 0.5 µg/mL (≈ 1.02 µM)
MIC (Staph. epiderm. (270)): 0.5 µg/mL (≈ 1.02 µM)
MIC (E. coli (N10)): 128 µg/mL (≈ 261 µM)
MIC (H. influenzae (C.L.)): 4 µg/mL (≈ 8.15 µM)
MIC (Staph. aureus (X1.1)): 0.125 µg/mL (≈ 0.255 µM)
MIC (K. pneumonia (X68)): 128 µg/mL (≈ 261 µM)
MIC (Strept. pyogenes (C203)): 0.015 µg/mL (≈ 0.0306 µM)
MIC (H. influenzae (76)): 2 µg/mL (≈ 4.08 µM)

COc1ccccc1-c1nc(CC(=O)N[C@@H]2C(=O)N3C(C(=O)O)=C(COC(C)=O)CS[C@H]23)cs1 [9o, [6R-[6A,7B(R*)]]-3-[(Acetyloxy)methyl]-7-[[[2-(2-methoxyphenyl)-4-thiazolyl]acetyl]amino]-8-oxo-5-thia-1-azabicyclo[4.2.0]oct-2-ene-2-carboxylic Acid]
MIC [1]: ≤ 16 µg/mL
MIC (other Gram(-) bacteria): > 64 µg/mL
MIC (Enter. faecalis (2041)): 8 µg/mL (≈ 15.9 µM)
MIC (E. coli (EC14)): 128 µg/mL (≈ 254 µM)
MIC (Staph. aureus (X400)): 16 µg/mL (≈ 31.8 µM)
MIC (K. pneumonia (X26)): 2 µg/mL (≈ 3.97 µM)
MIC (K. pneumonia (KAE)): 128 µg/mL (≈ 254 µM)
MIC (Staph. aureus (S13E)): 8 µg/mL (≈ 15.9 µM)
MIC (Staph. epiderm. (222)): 0.125 µg/mL (≈ 0.248 µM)
MIC (E. coli (TEM)): 128 µg/mL (≈ 254 µM)
MIC (Enter. faecium (X66)): 16 µg/mL (≈ 31.8 µM)
MIC (Staph. aureus (V41)): 0.5 µg/mL (≈ 0.993 µM)
MIC (Staph. epiderm. (270)): 0.5 µg/mL (≈ 0.993 µM)
MIC (E. coli (N10)): 128 µg/mL (≈ 254 µM)
MIC (H. influenzae (C.L.)): 64 µg/mL (≈ 127 µM)
MIC (Staph. aureus (X1.1)): 0.06 µg/mL (≈ 0.119 µM)
MIC (K. pneumonia (X68)): 128 µg/mL (≈ 254 µM)
MIC (Strept. pyogenes (C203)): 0.015 µg/mL (≈ 0.0298 µM)
MIC (H. influenzae (76)): 4 µg/mL (≈ 7.94 µM)
